{
  "source": "paper PMC8840081",
  "about": "“Phenylalanine-Based AMPA Receptor Antagonist as the Anticonvulsant Agent with Neuroprotective Activity—In Vitro and In Vivo Studies” (Molecules, 2022)",
  "key": {"[1]": {"assay": "ferric reducing antioxidant power (FRAP) assay", "details": "% of ascorbic acid activity; compounds and AA at 1 mM", "method": "The total antioxidant potential of aryl-substituted phenylalanine derivatives was determined using FRAP assay. The FRAP reagent was prepared first by mixing acetate buffer (300 mM, pH 3.6), a solution of 10 mM TPTZ (2,4,6-tripyridyl-s-triazine, Sigma-Aldrich, Inc., St. Louis, MO, USA) in 40 mM HCl and 20 mM of iron (III) chloride hexahydrate (FeCl3 × 6H2O, Chempur, Piekary Śląskie, Poland) at 10:1:1 (v/v/v). The FRAP reagent (190 μL) and 1 mM of tested compound (10 μL) was added next to each well, mixed and incubated for 30 min. The absorbance was measured using a microplate reader EnSpire (PerkinElmer, Waltham, MA USA) at 593 nm. AA (1 mM, AMARA, Kraków, Poland) was used as the reference antioxidant. The results were expressed as % of ascorbic acid activity (%AAA). Analyses were performed in triplicate. • ORAC-FL"}, "[2]": {"assay": "oxygen radical absorbance capacity fluorescent (ORAC-FL) assay", "details": "Trolox equivalent, calculated at 5 µM of compounds and Trolox", "method": "The ORAC-FL was performed according to procedure described in the literature. The reagents used in this assay, TX, fluorescein and 2,2′-azobis(2-amidinopropane) dihydrochloride (AAPH), were purchased from Sigma-Aldrich, Inc., St. Louis, MO, USA. The prepared ORAC-FL reagent consisted of 0.3 μM of fluorescein and 100 µM of AAPH dissolved in PBS buffer. The compounds and the reference antioxidant TX were tested at the concentration 2.5 µM and the results were compared to the blank in which no antioxidant was present. The assays were performed in black 96-well plates. The fluorescence readings were taken by a microplate reader EnSpire (PerkinElmer, Waltham, MA, USA) every minute for a duration of 240 min. The excitation wavelength was 485 nm and the emission wavelength was 520 nm. The area under the fluorescence decay curve (AUC) was calculated next by GraphPad Prism™ software (version 5.01, San Diego, CA, USA). All measurements were performed in triplicate. The TX equivalent (TE) was calculated next using the following Equation (1):TE = [(AUCsample − AUCblank)/(AUCTX − AUCblank)] × [CTX/Csample](1)"}, "[3]": {"tested_on": "IMR-32 neuroblastoma cells", "assay": "cell viability, MTS assay", "assay_type": "cell-based, human", "details": "IMR-32, 24 h incubation, 1–100 µM", "method": "(§1) All cell culture protocols and assay conditions were applied as we reported previously. SH-SY5Y (ATCC® CRL-2266™) cell line was purchased from ATCC (Manassas, VA, USA). IMR-32 (ATCC® CCL-127™) cell line was kindly provided by the Department of Oncogenomics, Academisch Medisch Centrum, Amsterdam, Holland. Before each test SH-SY5Y or IMR-32 cells were seeded in 96-well plates with transparent bottom at a concentration of 2.5 × 10^4 cells/well in 100 μL of respective cell culture medium and cultured for 24 h to reach 70% confluence. • Cell Viability\n(§2) The CellTiter 96® AQueous Non-Radioactive Cell Proliferation Assay was purchased from Promega (Madison, WI, USA). After 24 h of cells incubation with compound 1 or 8 in the concentrations range 1–100 µM the MTS-based labeling mixture was added to each well and cells were incubated under the same conditions for 2–3 h. The absorbance was measured using a microplate reader EnSpire (PerkinElmer, Waltham, MA, USA) at 490 nm. All measurements were performed in triplicate and results are shown as mean ± SD. • Lactate Dehydrogenase Test"}, "[4]": {"tested_on": "SH-SY5Y neuroblastoma cells", "assay": "cell viability, MTS assay", "assay_type": "cell-based, human", "details": "24 h incubation, 1–100 µM", "method": "as §1, §2"}, "[5]": {"tested_on": "IMR-32 neuroblastoma cells", "assay": "neuroprotection against 6-OHDA-induced LDH release", "assay_type": "cell-based, human", "details": "IMR-32, compound 50 µM, 1 h pretreatment, 200 µM 6-OHDA, 24 h", "method": "as §1\n(§3) CytoTox-ONE™ Homogeneous Membrane Integrity Assay, which based on the LDH release, was purchased from Promega (Madison, WI, USA). SH-SY5Y or IMR-32 cells were seeded in 96-well white plates with transparent bottom. For neuroprotective studies, the cells were preincubated first for 1 h with compound 1, 8 or reference antioxidants AA, TX (all at the concentration of 50 μM) and next the neurotoxin 6-OHDA (Sigma-Aldrich, Inc., St. Louis, MO, USA) was added at final concentration of 50 μM (SH-SY5Y assay) or 200 µM (IMR-32 assay). After 24 h of incubation, the CytoTox-ONE™ was added to each well and the cells were incubated next for 10 min at room temperature. The fluorescence was measured using a microplate reader EnSpire (PerkinElmer, Waltham, MA, USA) with an excitation wavelength of 560 nm and an emission wavelength of 590 nm. All measurements were performed in triplicate and results are shown as mean ± SD. The similar studies were also performed with SH-SY5Y cells injured by 100 μM of 6-OHDA (Figure S1, Supporting Materials). • ROS Assay"}, "[6]": {"tested_on": "SH-SY5Y neuroblastoma cells", "assay": "neuroprotection against 6-OHDA-induced LDH release", "assay_type": "cell-based, human", "details": "compound 50 µM", "method": "as §1, §3"}, "[7]": {"tested_on": "SH-SY5Y cells", "assay": "ROS assay (DCFH-DA), H2O2-induced ROS accumulation", "assay_type": "cell-based, human", "details": "compound 50 µM, 500 µM H2O2, 3 h", "method": "as §1\nDuring this assay SH-SY5Y cells were preincubated first for 1 h with 250 μM solution of DCFH-DA (Sigma-Aldrich, Inc., St. Louis, MO, USA) in HBSS buffer. After DCFH-DA was removed, cells were washed with HBSS and incubated next for 1 h with 50 μM of compound 1 or 8. Next, the H2O2 was added at final concentration 500 μM. After 3 h of incubation, the fluorescence was measured using a microplate reader EnSpire (PerkinElmer, Waltham, MA, USA) with an excitation wavelength of 486 nm and emission wavelength of 530 nm. All measurements were performed in triplicate and results are shown as mean ± SD."}, "[8]": {"biological_target": "T1, Human MAO-B (Homo sapiens, UniProt P27338)", "T1 construct": "purchased Merck KGaA (Darmstadt, Germany)", "T1 sequence (P27338 1-520)": "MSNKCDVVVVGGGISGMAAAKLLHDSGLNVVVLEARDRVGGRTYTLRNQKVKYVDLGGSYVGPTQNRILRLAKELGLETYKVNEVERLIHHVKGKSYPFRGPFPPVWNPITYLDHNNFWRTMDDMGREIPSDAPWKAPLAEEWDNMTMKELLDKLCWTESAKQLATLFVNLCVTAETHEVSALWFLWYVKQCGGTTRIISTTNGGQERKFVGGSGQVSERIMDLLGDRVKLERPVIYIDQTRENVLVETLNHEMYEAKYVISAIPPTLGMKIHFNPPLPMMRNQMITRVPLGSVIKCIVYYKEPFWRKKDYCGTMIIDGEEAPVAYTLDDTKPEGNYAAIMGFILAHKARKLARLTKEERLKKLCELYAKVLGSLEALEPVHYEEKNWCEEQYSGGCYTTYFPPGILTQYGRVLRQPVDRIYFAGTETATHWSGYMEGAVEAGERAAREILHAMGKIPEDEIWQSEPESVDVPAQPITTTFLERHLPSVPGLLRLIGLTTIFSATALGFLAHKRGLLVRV", "assay": "MAO-B inhibition, Amplex Red Monoamine Oxidase kit", "assay_type": "biochemical", "details": "1 µM compound; % of full inhibition (pargyline 10 µM)", "method": "Human MAO-B was purchased from Merck KGaA (Darmstadt, Germany). The activity of compound 1 and 8 was measured in the presence of p-tyramine (200 μM). […] Firstly, inhibitors’ activity was measured in a concentration of 1 μM. […] For compounds that inhibited the enzyme by more than 50% further studies were conducted to obtain IC50 from concentration–response curves. All calculations were made in Microsoft Excel and GraphPadPrism software. All experiments were performed in duplicate and data are expressed as mean ± SEM."}, "[9]": {"biological_target": "native AMPA receptors", "details": "native AMPA receptors, rat brain membranes, mean of three experiments, cited from earlier work"}},
  "data": [
    {"smiles": "Nc1c(Cl)cc(CC(N)C(=O)O)cc1-c1ccc(O)cc1", "note": "(centres unmarked) [Compound 8]", "values": [
      {"measurement": "FRAP (%AAA)", "setting": "[1]", "value": 48.19, "unit": "%AAA"},
      {"measurement": "ORAC (TE)", "setting": "[2]", "value": 7.56, "unit": "TE"},
      {"measurement": "cell viability", "setting": "[3]", "value": "no influence on cell viability"},
      {"measurement": "cell viability", "setting": "[4]", "value": "no influence on cell viability"},
      {"measurement": "6-OHDA-induced release of LDH (neuroprotection)", "setting": "[5]", "value": "no statistically significant neuroprotective effect"},
      {"measurement": "6-OHDA-induced release of LDH (neuroprotection)", "setting": "[6]; 100 µM 6-OHDA", "value": "neuroprotective effect was not observed"},
      {"measurement": "6-OHDA-induced release of LDH (neuroprotection)", "setting": "[6]; 1 h pretreatment, 50 µM 6-OHDA, 24 h", "value": "no statistically significant neuroprotective effect"},
      {"measurement": "intracellular ROS level", "setting": "[7]", "value": "statistically significant decrease"},
      {"measurement": "MAO-B inhibition, screening", "setting": "[8]", "value": "No inhibitory activity"},
      {"measurement": "[3H]AMPA Ki", "setting": "[9]", "value": "lack of detectable AMPA receptor affinity"},
      {"measurement": "Ki", "setting": "[9]; read-out: [3H]AMPA Ki", "value": "> 100", "unit": "µM"}
    ]}
  ]
}
